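Growth conditions: 96-well plates. Treatment: test compound, 48 hours, 5 concentrations. Analysis: linear interpolation between bracketing concentrations; unreached endpoints set to highest concentration. Definition used: TGI = concentration required for complete inhibition of growth.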 *1 amine or outer side, *2 acyl side, *3 side chain or, on linkers, in order; H or OH if unused. Where a SMILES comes first, the peptide text is derived from it. [ ]: non-standard residue; d: D form. The star is where a group is joined. X31 = CC(=O)N(C)SCC(N[*:1])C(=O)[*:2]; X47 = CC(=O)N(C)SCC(N*)/C(O)=N\O; Cbz = O=C(OCc1ccccc1)*; Bn = c1ccc(C*)cc1; For = O=C* Where only a bound is given, the exact number is not on record here.

Test systems include BT-549 breast; DU-145 prostate; EKVX NSCLC; HCC-2998 colon; HOP-62 NSCLC; HS 578T breast; K-562 leukemia; KM12 colon; M14 melanoma; MCF7 breast; MDA-MB-231 breast; SF-268 CNS; SF-295 CNS; SK-MEL-5 melanoma; SK-OV-3 ovarian; SNB-19 CNS; TK-10 renal; UO-31 renal; A498 renal.
Holding throughout (test): growth of human tumour cells (NCI), 48 h

Turning to `CC(C)(C)c1cc(C(=O)Nc2cc(Br)c(Br)cc2S(N)(=O)=O)cc(C(C)(C)C)c1O`, the TGI turned out to be 25.4 µM in the experiment on BT-549 breast; 29.2 µM in the experiment with DU-145 prostate; 26.2 µM in the experiment with EKVX NSCLC; 18.1 µM in the experiment with HCC-2998 colon; 35.3 µM with HOP-62 NSCLC; 30.5 µM in the experiment on HS 578T breast. Also, the TGI in the experiment with K-562 leukemia was 25.7 µM; in the experiment with KM12 colon it was 36.4 µM; in the experiment on M14 melanoma it was 35.9 µM; with MCF7 breast, 18.8 µM; in the experiment on MDA-MB-231 breast, 26.4 µM; in the experiment on SF-268 CNS it was 29 µM. Besides, the TGI in the experiment with SF-295 CNS is 27.7 µM; with SK-MEL-5 melanoma, 25 µM; with SK-OV-3 ovarian, 31.3 µM; in the experiment on SNB-19 CNS, 31.1 µM; in the experiment with TK-10 renal it was 25.5 µM; in the experiment on UO-31 renal it was 24.7 µM.

As to `COc1cc(C=O)ccc1Oc1nnnn1-c1ccccc1`, the TGI in the experiment on BT-549 breast, in the experiment on DU-145 prostate, in the experiment on EKVX NSCLC, in the experiment with HOP-62 NSCLC, with HS 578T breast and in the experiment with K-562 leukemia was > 100 µM in each case. For the same compound, the TGI was > 100 µM in the experiment on KM12 colon; > 100 µM in the experiment with M14 melanoma; > 100 µM in the experiment on MDA-MB-231 breast; > 100 µM with SF-268 CNS; > 100 µM in the experiment on SF-295 CNS; 59.2 µM in the experiment on SK-MEL-5 melanoma. For the same compound, the TGI with SK-OV-3 ovarian, in the experiment on SNB-19 CNS, in the experiment with TK-10 renal and with UO-31 renal was > 100 µM in each case.

With `CC(=O)ON(C(C)=O)c1ccc(-c2nc3ccccc3s2)cc1`, the TGI with A498 renal is > 67.2 µM; with BT-549 breast, > 100 µM; in the experiment on DU-145 prostate, > 77.1 µM; in the experiment with EKVX NSCLC, 65.2 µM; in the experiment with HCC-2998 colon, 41.9 µM; in the experiment on HOP-62 NSCLC, > 55.8 µM. Further, the TGI is > 88 µM with HS 578T breast; > 100 µM with K-562 leukemia; 33.2 µM in the experiment with KM12 colon; 64 µM with M14 melanoma; > 91.5 µM in the experiment on MDA-MB-231 breast; > 100 µM with SF-268 CNS. In addition, the TGI with SF-295 CNS is > 76.4 µM; in the experiment with SK-MEL-5 melanoma it was 89.9 µM; with SK-OV-3 ovarian, > 100 µM; in the experiment with SNB-19 CNS, > 100 µM; in the experiment on TK-10 renal it was > 100 µM; in the experiment with UO-31 renal, 33.2 µM.

In the case of `CC(=O)N(C)SCC(NC(=O)C(Cc1ccccc1)NC(=O)OCc1ccccc1)C(=O)NC(Cc1ccccc1)C(=O)NC(Cc1cn(C=O)c2ccccc12)C(=O)NC(CCCCNC(=O)OCc1ccccc1)C(=O)NC(C(=O)NC(CSN(C)C(C)=O)/C(O)=N\O)C(C)OCc1ccccc1` (stereo not drawn) (Cbz-F[X31]FW(For)K(Cbz)T(Bn)-X47; configuration not given here), the TGI with BT-549 breast, in the experiment with DU-145 prostate, with EKVX NSCLC, in the experiment on HCC-2998 colon, with HOP-62 NSCLC and with HS 578T breast was > 100 µM each time. Further, the TGI in the experiment with K-562 leukemia, with KM12 colon, in the experiment on M14 melanoma, in the experiment with MCF7 breast, in the experiment on MDA-MB-231 breast and with SF-268 CNS was > 100 µM in each case. The TGI with SF-295 CNS, with SK-MEL-5 melanoma, in the experiment with SK-OV-3 ovarian, in the experiment with SNB-19 CNS, in the experiment with TK-10 renal and in the experiment on UO-31 renal was > 100 µM in each case.

`C=CCn1c(=O)c2ccccc2[n+]2c(C)c(C(=O)OCC)sc12`: the TGI with BT-549 breast, in the experiment with DU-145 prostate, in the experiment on EKVX NSCLC, in the experiment with HCC-2998 colon, with HOP-62 NSCLC and with HS 578T breast was > 100 µM each time. Besides, the TGI in the experiment on K-562 leukemia, with KM12 colon, with M14 melanoma, with MCF7 breast, in the experiment on MDA-MB-231 breast and in the experiment with SF-268 CNS was > 100 µM each time. Moreover, the TGI in the experiment with SF-295 CNS, in the experiment with SK-MEL-5 melanoma, in the experiment on SK-OV-3 ovarian, with SNB-19 CNS, with TK-10 renal and in the experiment with UO-31 renal was > 100 µM throughout.

For the compound `COc1cc(-c2cn(S(=O)(=O)c3ccc(C)cc3)c3ccccc23)nc(-c2cn(S(=O)(=O)c3ccc(C)cc3)c3ccccc23)n1`, the TGI in the experiment on A498 renal is > 100 µM; in the experiment on BT-549 breast, > 100 µM; in the experiment with DU-145 prostate, 1.85 µM; in the experiment on EKVX NSCLC, > 100 µM; in the experiment on HCC-2998 colon, > 100 µM; in the experiment on HOP-62 NSCLC it was > 100 µM. Further, the TGI in the experiment on HS 578T breast is > 100 µM; in the experiment with K-562 leukemia it was > 100 µM; in the experiment with KM12 colon it was 8.44 µM; with M14 melanoma, 17 µM; in the experiment with MCF7 breast it was > 100 µM; in the experiment on SF-295 CNS, > 91.7 µM. Moreover, the TGI with SK-OV-3 ovarian was > 100 µM; in the experiment on SNB-19 CNS it was 32.1 µM; in the experiment on TK-10 renal it was > 100 µM; in the experiment with UO-31 renal it was > 75.1 µM.

Consider `CCOC(=O)c1c2c3c(cccc3[nH]c1=O)Sc1ncccc1-2`, for which the TGI with BT-549 breast, in the experiment with DU-145 prostate, in the experiment on EKVX NSCLC, with HCC-2998 colon, with HOP-62 NSCLC and in the experiment with HS 578T breast was > 100 µM each time. For the same compound, the TGI is > 100 µM with K-562 leukemia; > 100 µM with M14 melanoma; > 100 µM in the experiment with MCF7 breast; > 100 µM with MDA-MB-231 breast; > 100 µM in the experiment with SF-268 CNS; 95.3 µM in the experiment with SF-295 CNS. The TGI with SK-MEL-5 melanoma was 24 µM; in the experiment with SK-OV-3 ovarian it was > 100 µM; in the experiment on SNB-19 CNS, > 100 µM; in the experiment on TK-10 renal, > 100 µM; in the experiment on UO-31 renal it was 81.5 µM.

Turning to `NCC(=O)NC1(c2cc3ccccc3s2)CCCCC1`, the TGI with A498 renal is > 100 µM; in the experiment with BT-549 breast it was > 100 µM; with DU-145 prostate, > 100 µM; in the experiment with EKVX NSCLC, > 100 µM; in the experiment on HCC-2998 colon it was 29 µM; in the experiment on HOP-62 NSCLC it was > 100 µM. For the same compound, the TGI in the experiment with HS 578T breast is 99.5 µM; in the experiment on K-562 leukemia, 24.6 µM; in the experiment with KM12 colon, > 100 µM; with M14 melanoma it was 34 µM; in the experiment on MCF7 breast it was > 100 µM; in the experiment with SF-268 CNS, > 100 µM. The TGI in the experiment with SF-295 CNS is > 100 µM; with SK-MEL-5 melanoma, 33.2 µM; in the experiment with SK-OV-3 ovarian it was > 100 µM; with SNB-19 CNS, > 100 µM; with TK-10 renal, > 100 µM; in the experiment with UO-31 renal, > 100 µM.

As for `CCOC(=O)c1ccc(Nc2cnc3cc(C(F)(F)F)ccc3n2)cc1`, the TGI in the experiment with A498 renal, in the experiment with BT-549 breast, in the experiment with DU-145 prostate, with EKVX NSCLC, in the experiment with HCC-2998 colon and with HOP-62 NSCLC was > 100 µM in each case. The TGI with HS 578T breast, in the experiment with K-562 leukemia, in the experiment on KM12 colon, in the experiment with MDA-MB-231 breast, in the experiment with SF-268 CNS and with SF-295 CNS was > 100 µM throughout. Moreover, the TGI in the experiment with SK-MEL-5 melanoma, with SK-OV-3 ovarian, in the experiment on TK-10 renal and with UO-31 renal was > 100 µM each time.

Turning to `O=C(O)c1cc2ccccc2c(N=Nc2ccccc2)c1O`, the TGI with A498 renal was > 100 µM; in the experiment on BT-549 breast, 45.1 µM; with DU-145 prostate it was 29.7 µM; in the experiment with EKVX NSCLC it was 96.6 µM; in the experiment with HOP-62 NSCLC it was 32.5 µM; in the experiment on HS 578T breast, > 100 µM. In addition, the TGI in the experiment with K-562 leukemia was > 100 µM; with KM12 colon, 36.4 µM; in the experiment with M14 melanoma, 37.9 µM; with MDA-MB-231 breast, > 100 µM; in the experiment on SF-268 CNS it was > 100 µM; with SF-295 CNS, 25.9 µM. Also, the TGI was 28.2 µM in the experiment with SK-MEL-5 melanoma; > 100 µM in the experiment with SK-OV-3 ovarian; 79.6 µM in the experiment with SNB-19 CNS; > 100 µM in the experiment on TK-10 renal; > 100 µM in the experiment on UO-31 renal.

Consider `COc1ccc(Oc2cccc(/C=C3/C(=O)Nc4ccccc43)c2)cc1`, for which the TGI in the experiment with A498 renal was found to be 25.4 µM; with BT-549 breast, 29.5 µM; in the experiment with DU-145 prostate it was 27.1 µM; in the experiment with EKVX NSCLC, 25.1 µM; in the experiment on HCC-2998 colon, 21.3 µM; in the experiment with HOP-62 NSCLC, 28 µM. The TGI was 45.8 µM in the experiment with HS 578T breast; 7.63 µM in the experiment on K-562 leukemia; 18 µM in the experiment on KM12 colon; 24.3 µM with M14 melanoma; 12.8 µM in the experiment with MCF7 breast; 24.1 µM in the experiment with SF-268 CNS. For the same compound, the TGI in the experiment on SF-295 CNS stood at 19.9 µM; in the experiment on SK-MEL-5 melanoma, 11.3 µM; in the experiment on SK-OV-3 ovarian, 31 µM; in the experiment on SNB-19 CNS it was 19.1 µM; in the experiment with TK-10 renal, 29.9 µM; in the experiment with UO-31 renal, 20 µM.

As for `O=c1cc(NCCCCCO)[nH]c(=O)[nH]1`, the TGI with A498 renal, with BT-549 breast, in the experiment on EKVX NSCLC, in the experiment with HCC-2998 colon, in the experiment with HOP-62 NSCLC and in the experiment on HS 578T breast was > 100 µM throughout. The TGI with K-562 leukemia, with KM12 colon, in the experiment on M14 melanoma, with MCF7 breast, with MDA-MB-231 breast and in the experiment with SF-268 CNS was > 100 µM throughout. The TGI in the experiment on SF-295 CNS, with SK-MEL-5 melanoma, in the experiment on SK-OV-3 ovarian, in the experiment on SNB-19 CNS, with TK-10 renal and in the experiment on UO-31 renal was > 100 µM in each case.

Values taken from PubChem BioAssay (NCI).
